Measured values taken from patent publication US20170045513A1, “METHODS OF DIAGNOSING CELIAC DISEASE USING IP-10” (ImmusanT, Inc., priority 2014, published 2017).
Non-standard residues stand in square brackets, D forms with d. pGlu = O=C1CC[C@@H](C(=O)O)N1

How the values were obtained:
Assay type in all cases: cell-based, human
[1] = test system: gluten-reactive T cells; test: 96-well plate whole blood cytokine release, IFNγ by MAGPIX multiplex bead assay; conditions: for Percent of maximal response to individual gluten peptides, IFNg: after oral gluten challenge; for IFNγ WB MAGPIX % max Mean: n = 8, blood after oral gluten challenge, individual peptides 5 μM (Peptide 2* of P14, Pepscan: 10 μg/mL (5.45 μM))
[2] = test system: gluten-reactive T cells; test: Overnight IFNγ ELISpot assay with fresh PBMC; conditions: for Percent of maximal response to individual gluten peptides, ELISp: after oral gluten challenge; for IFNγ ELISpot % max Mean: n = 5, blood after oral gluten challenge, individual peptides 5 μM (Peptide 2* of P14, Pepscan: 10 μg/mL (5.45 μM))
Experimental: HLA-DQ2.5-positive celiac disease subjects on gluten-free diet were used in this study. Blood was collected immediately before and 6 days after commencing 3-day oral gluten challenge. Whole blood or PBMCs were incubated with pools or single peptides derived from gluten or recall antigens. IFNγ and IP-10 levels were measured in plasma from the whole blood that was incubated in 96-well plates with peptides or peptide pools. Plasma cytokine/chemokine levels were measured by MAGPIX® multiplex bead assay (IFNγ and IP-10) or by ELISA (IFNγ and IP-10), and PBMC separated from the same blood sample were incubated in overnight IFNγ ELISpot assays.
Overnight IFNγ ELISpot assays (Human IFN-γ ELISpotPRO kit, transparent, ALP; Mabtech AB, #3420-2APT-10) were performed using PBMC freshly separated from heparinized blood diluted 1:1 in PBS with 2% fetal bovine serum (Stemcell Technologies #07905; Vancouver, BC, V5Z 1B3, Canada) overlaid on density gradient medium (Ficoll-Paque™ PLUS; GE Healthcare Lice Sciences #:17-1440-02) in SepMate™-50 tubes (Stemcell Technologies #15460). PBMC (8 million/mL) were resuspended in serum-free medium with gentamicin and phenol red (X-VIVO™15; Lonza, Walkersville Mass. 21793). PBMC (0.4 million/50 pt/well) and incubated with 50 μL 80% X-vivo15, 0.2% DMSO and 20% PBS in three triplicate wells (“medium only”), or with 50 μL PHA-L 20 μg/ml or peptide at 2× final concentration in 80% X-vivo15, 0.2% DMSO and 20% PBS. Peptide solutions to be added to individual ELISpot wells were prepared in 96-well U-bottom plates (60 pt/well) that were then sealed with adhesive ELISA plate cover slips before replacing the plastic lid and being frozen at −80° C. 96-well plates containing peptide solutions were thawed at room temperature for 10 min while being centrifuged at 300 g immediately prior to being added to ELISpot wells. Peptide pools and mitogen were assessed in triplicate wells, and individual peptides were assessed in duplicate wells. X-VIVO™15 (50 μL) was incubated with 80% X-vivo15, 0.2% DMSO and 20% PBS (50 μL) in triplicate wells (“no PBMC” control). A Zeiss automated ELISpot counter was used to determine spot forming units (SFU) per well (Zellnet Inc., Fort Lee, N J 07024). Laboratory staff were unaware of the arrangement of peptide solutions in ELISpot wells during assay setup and plate counting.

[3] = test system: gluten-reactive T cells; test: Cytokine release assays taken together (IFNγ ELISpot, whole blood IFNγ and IP-10, in-tube IFNγ ELISA); conditions: for activity relative to Peptide 14 in the cytokine release assays: blood collected after oral gluten challenge
Experimental: Gluten peptide solutions for addition to whole blood were arranged according to standardized templates in sterile 96-well U-bottom plates (30 μL/well). Plates were sealed with adhesive ELISA plate cover slips before the plastic lid was replaced and being frozen at −80° C. Whole blood assay (WBA) “medium” (1% DMSO in 90% PBS and 9% normal saline), mitogen (PHA-L, Sigma-Aldrich #L2769; St Louis Mo.) 100 μg/ml in WBA medium, and CEF diluted to 10 μg/ml in PBS with a final concentration of 1% DMSO were frozen separately in sterile cryovials. 96-well plates and cryovials with frozen incubation solutions were shipped on dry ice to the clinical site where blood was collected and incubations performed. Solutions were thawed at room temperature for 10 min just before being added to whole blood. 96-well plates were thawed while being centrifuged at 300 g to avoid surface condensation. A multi-channel pipette was used to efficiently transfer 25 μL of peptide solutions from the original 96-well plate to corresponding wells in a fresh sterile 96-well U-bottom plate. Once incubation solutions had been added, 225 μL of whole blood was added to each well and the plate transferred to incubate for 24 h at 37° C. 5% CO2. […] Individual peptides were incubated at a final assay concentration of 51.1M. Final concentrations of individual peptides assessed in P3 was 0.05-50 μg/mL, and in P14 and P13 pools 0.025-25 μM. The P71 pool was tested at between 0.005-10 pg/mL, the highest tested concentration being the maximal possible not exceeding 0.1% DMSO. Peptide pools, mitogen, and medium only were assessed in triplicate wells, and on Day-6 individual peptides were assessed in duplicate wells. Incubations were terminated after 24 h, and 96-well plates centrifuged at 300 g for 10 min. A total of approximately 90 to 120 μL of plasma was removed from each well taking care to avoid red cell contamination, and transferred into corresponding wells of two further 96-well plates (one with 30 μL/well and the residual in the second plate). Plasmas were frozen at −80° C. and later shipped on dry ice to the central lab where IP-10 and IFNγ multiplex bead assays were performed according to manufacturer's instructions using 25 μL plasma per well (Milliplex® MAP Human Cytokine/Chemokine Magnetic Bead Panel #HCYTOMAG-60k-02; EMD Millipore Corp., Billerica, Mass. 01821) and analysed with the Luminex® MAGPIX® System xPONENT® software (Luminex Corporation, Austin Tex. 78727). Plasma cytokine levels for each assay condition were expressed as the mean analyte concentration of each of the three replicate incubations. Laboratory staff were unaware of the arrangement of peptide solutions incubated with during assay setup and plate counting.
Aliquots of PBS, P3 peptides diluted in PBS (final concentration in blood 3× 50 or CEF to a final concentration 1 μg/mL were prepared in sterile cryovials (0.11 mL/vial) and stored frozen (−80° C.) until immediately before use. P3, CEF and two PBS aliquots were drawn up in separate sterile 0.3 mL insulin syringes with attached 29G×½″ needle (Terumo, SS*30M2913; Elkton Md. 21921). P3, CEF and one PBS aliquot was injected through the stoppers of three separate QuantiFERON® NIL tubes already containing 1 mL blood, and one aliquot of PBS was injected into a QuantiFERON® MITOGEN tube already containing 1 mL blood. All four tubes containing blood and incubation solution were gently inverted ten-times and transferred to incubate at 37° C. 5% CO2. After for 24 h, tubes were centrifuged 300 g 10 min. Plasma was separated and equal volumes placed in two 1.5 mL cryovials. Frozen plasmas were transferred to the central lab where IFNγ levels were measured in triplicate 50 μL samples by ELISA (MABtech Human IFN-γ ELISA development kit HRP, 3420-1H-6; capture mAb 1-D1K). […]

## (pE)QPFPQPEQPTPIQPEQP-amide ([pGlu]QPFPQPEQPTPIQPEQP-NH2; SMILES CC[C@H](C)[C@H](NC(=O)[C@@H]1CCCN1C(=O)[C@@H](NC(=O)[C@@H]1CCCN1C(=O)[C@H](CCC(N)=O)NC(=O)[C@H](CCC(=O)O)NC(=O)[C@@H]1CCCN1C(=O)[C@H](CCC(N)=O)NC(=O)[C@@H]1CCCN1C(=O)[C@H](Cc1ccccc1)NC(=O)[C@@H]1CCCN1C(=O)[C@H](CCC(N)=O)NC(=O)[C@@H]1CCC(=O)N1)[C@@H](C)O)C(=O)N[C@@H](CCC(N)=O)C(=O)N1CCC[C@H]1C(=O)N[C@@H](CCC(=O)O)C(=O)N[C@@H](CCC(N)=O)C(=O)N1CCC[C@H]1C(N)=O) [Peptide 5]
[1]; Subject 2, Max. 116 pg/mL
  Percent of maximal response to individual gluten peptides, IFNg: 39 % of max
[1]; Subject 3, Max. 799 pg/mL
  Percent of maximal response to individual gluten peptides, IFNg: 5 % of max
[1]; Subject 4, Max. 136 pg/mL
  Percent of maximal response to individual gluten peptides, IFNg: 13 % of max
[1]; Subject 6, Max. 72 pg/mL
  Percent of maximal response to individual gluten peptides, IFNg: 1 % of max
[1]; Subject 7, Max. 17 pg/mL
  Percent of maximal response to individual gluten peptides, IFNg: 6 % of max
[1]; Subject 8, Max. 47 pg/mL
  Percent of maximal response to individual gluten peptides, IFNg: 0 % of max
[1]; Subject 9, Max. 67 pg/mL
  Percent of maximal response to individual gluten peptides, IFNg: 0 % of max
[1]; Subject 10, Max. 229 pg/mL
  Percent of maximal response to individual gluten peptides, IFNg: 27 % of max
[1]
  IFNγ WB MAGPIX % max Mean: 11 (11) % max
[2]; Subject 3, Max. 18 SFU
  Percent of maximal response to individual gluten peptides, ELISp: 17 % of max
[2]; Subject 4, Max. 36 SFU
  Percent of maximal response to individual gluten peptides, ELISp: 19 % of max
[2]; Subject 6, Max. 16 SFU
  Percent of maximal response to individual gluten peptides, ELISp: 0 % of max
[2]; Subject 8, Max. 17 SFU
  Percent of maximal response to individual gluten peptides, ELISp: 18 % of max
[2]; Subject 10, Max. 11 SFU
  Percent of maximal response to individual gluten peptides, ELISp: 55 % of max
[2]
  IFNγ ELISpot % max Mean: 22 % max
[3]
  activity relative to Peptide 14 in the cytokine release assays: from one-half to one-eighth as active as Peptide 14

## (pE)QPFPQPEQPFSQQ-amide ([pGlu]QPFPQPEQPFSQQ-NH2; SMILES NC(=O)CC[C@H](NC(=O)[C@H](CCC(N)=O)NC(=O)[C@H](CO)NC(=O)[C@H](Cc1ccccc1)NC(=O)[C@@H]1CCCN1C(=O)[C@H](CCC(N)=O)NC(=O)[C@H](CCC(=O)O)NC(=O)[C@@H]1CCCN1C(=O)[C@H](CCC(N)=O)NC(=O)[C@@H]1CCCN1C(=O)[C@H](Cc1ccccc1)NC(=O)[C@@H]1CCCN1C(=O)[C@H](CCC(N)=O)NC(=O)[C@@H]1CCC(=O)N1)C(N)=O) [Peptide 7]
[1]; Subject 2, Max. 116 pg/mL
  Percent of maximal response to individual gluten peptides, IFNg: 60 % of max
[1]; Subject 3, Max. 799 pg/mL
  Percent of maximal response to individual gluten peptides, IFNg: 2 % of max
[1]; Subject 4, Max. 136 pg/mL
  Percent of maximal response to individual gluten peptides, IFNg: 8 % of max
[1]; Subject 6, Max. 72 pg/mL
  Percent of maximal response to individual gluten peptides, IFNg: 0 % of max
[1]; Subject 7, Max. 17 pg/mL
  Percent of maximal response to individual gluten peptides, IFNg: 0 % of max
[1]; Subject 8, Max. 47 pg/mL
  Percent of maximal response to individual gluten peptides, IFNg: 0 % of max
[1]; Subject 9, Max. 67 pg/mL
  Percent of maximal response to individual gluten peptides, IFNg: 0 % of max
[1]; Subject 10, Max. 229 pg/mL
  Percent of maximal response to individual gluten peptides, IFNg: 1 % of max
[1]
  IFNγ WB MAGPIX % max Mean: 9 % max
[2]; Subject 3, Max. 18 SFU
  Percent of maximal response to individual gluten peptides, ELISp: 0 % of max
[2]; Subject 4, Max. 36 SFU
  Percent of maximal response to individual gluten peptides, ELISp: 11 % of max
[2]; Subject 6, Max. 16 SFU
  Percent of maximal response to individual gluten peptides, ELISp: 6 % of max
[2]; Subject 8, Max. 17 SFU
  Percent of maximal response to individual gluten peptides, ELISp: 0 % of max
[2]; Subject 10, Max. 11 SFU
  Percent of maximal response to individual gluten peptides, ELISp: 9 % of max
[2]
  IFNγ ELISpot % max Mean: 5 % max
[3]; HLA-DQ2.5+ celiac disease subjects after gluten challenge
  cytokine release / immunogenicity of individual peptide: weak or absent

## (pE)QPYPQPELPYPQPQ-amide ([pGlu]QPYPQPELPYPQPQ-NH2; SMILES CC(C)C[C@H](NC(=O)[C@H](CCC(=O)O)NC(=O)[C@@H]1CCCN1C(=O)[C@H](CCC(N)=O)NC(=O)[C@@H]1CCCN1C(=O)[C@H](Cc1ccc(O)cc1)NC(=O)[C@@H]1CCCN1C(=O)[C@H](CCC(N)=O)NC(=O)[C@@H]1CCC(=O)N1)C(=O)N1CCC[C@H]1C(=O)N[C@@H](Cc1ccc(O)cc1)C(=O)N1CCC[C@H]1C(=O)N[C@@H](CCC(N)=O)C(=O)N1CCC[C@H]1C(=O)N[C@@H](CCC(N)=O)C(N)=O) [Peptide 15]
[1]; Subject 2, Max. 116 pg/mL
  Percent of maximal response to individual gluten peptides, IFNg: 46 % of max
[1]; Subject 3, Max. 799 pg/mL
  Percent of maximal response to individual gluten peptides, IFNg: 5 % of max
[1]; Subject 4, Max. 136 pg/mL
  Percent of maximal response to individual gluten peptides, IFNg: 24 % of max
[1]; Subject 6, Max. 72 pg/mL
  Percent of maximal response to individual gluten peptides, IFNg: 5 % of max
[1]; Subject 7, Max. 17 pg/mL
  Percent of maximal response to individual gluten peptides, IFNg: 6 % of max
[1]; Subject 8, Max. 47 pg/mL
  Percent of maximal response to individual gluten peptides, IFNg: 4 % of max
[1]; Subject 9, Max. 67 pg/mL
  Percent of maximal response to individual gluten peptides, IFNg: 100 % of max
[1]; Subject 10, Max. 229 pg/mL
  Percent of maximal response to individual gluten peptides, IFNg: 7 % of max
[1]
  IFNγ WB MAGPIX % max Mean: 25 % max
[2]; Subject 3, Max. 18 SFU
  Percent of maximal response to individual gluten peptides, ELISp: 11 % of max
[2]; Subject 4, Max. 36 SFU
  Percent of maximal response to individual gluten peptides, ELISp: 17 % of max
[2]; Subject 6, Max. 16 SFU
  Percent of maximal response to individual gluten peptides, ELISp: 31 % of max
[2]; Subject 8, Max. 17 SFU
  Percent of maximal response to individual gluten peptides, ELISp: 6 % of max
[2]; Subject 10, Max. 11 SFU
  Percent of maximal response to individual gluten peptides, ELISp: 0 % of max
[2]
  IFNγ ELISpot % max Mean: 13 % max
[3]
  activity relative to Peptide 14 in the cytokine release assays: no more than two-thirds as active as Peptide 14
